Source: patent US9676822B2, “Oligopeptidic compounds and uses thereof” (APIM THERAPEUTICS AS, priority 2008, dated 2017)
Values belong to the molecule of their own block, whether it stands above or below them. Where a SMILES comes first, the peptide text is derived from it. Where no end group is shown, it is not given here. Side-chain parts run from the residue outwards. The star is where a group is joined. 5FAM = O=C1OC2(c3ccc(O)cc3Oc3cc(O)ccc32)c2ccc(C(=O)*)cc21; Ahx = NCCCCCC(=O)O

Tests used:
[1] = test system: EYFP and hABH21-10-EYFP expressing cells; assay: Flow analysis of the cell cycle after treatment with alkylating agents; assay type: cell-based
From the text: (§1) This is surprising since TMZ is believed to induce mainly O^6methyl-G which is repair by a direct repair mechanism by MGMT, not involving removal of any bases or strand breaks. […] The cells were still arrested in G2/M on day 3.

[2] = test system: EYFP and hABH21-10-EYFP expressing cells; assay: Comet assay for DNA repair intermediates after treatment with alkylating agents; assay type: cell-based
From the text: as §1

HeLa cells [3] = test system: HeLa cells
Method: HeLa cells were seeded into 96 well plates (6000 cells/well) and incubated for 3 hours. Various doses of peptides were added to the wells in presence (filled diamonds) or absence of serum (filled square) in the media. After 1 h equal volume media with 10% or 20% serum (to serum free media) were added to the wells. The cells were incubated for 48 hours before measurement of cell survival by the MTT assay.
Cytotoxicity of the peptides was investigated by an MTT assay as described below, using the peptides alone, in the absence of cytostatic drugs. Cytotoxicity data was also obtained from controls used in the cytostatic drug MTT assays (controls with peptide but without cytostatic drug), where the control peptides were followed for longer (4 days).
Cytotoxicity of the peptides after 48 hours are measured using the MTT assay. HeLa cells were seeded into 96 well plates (6000 cells/well) and incubated for 3 hours. Various doses of peptides were added to the wells in presence or absence of serum in the media. After 1 h equal volume media with 1× or 2× (to serum free media) were added and the cells incubated for 48 hours before addition of MTT (see above).

PCNA [4] = target: T1, PCNA (Homo sapiens, UniProt P12004); assay: Co-localisation of EYFP fusion constructs with ECFP-PCNA by confocal imaging; assay type: cell-based; conditions: co-expressed with ECFP-PCNA
T1 construct: endogenous in cells; host or cells: HeLa cells stably expressing the EYFP fusion constructs; fractionated cell extracts
T1 sequence (P12004 whole entry, the tested form may be a part): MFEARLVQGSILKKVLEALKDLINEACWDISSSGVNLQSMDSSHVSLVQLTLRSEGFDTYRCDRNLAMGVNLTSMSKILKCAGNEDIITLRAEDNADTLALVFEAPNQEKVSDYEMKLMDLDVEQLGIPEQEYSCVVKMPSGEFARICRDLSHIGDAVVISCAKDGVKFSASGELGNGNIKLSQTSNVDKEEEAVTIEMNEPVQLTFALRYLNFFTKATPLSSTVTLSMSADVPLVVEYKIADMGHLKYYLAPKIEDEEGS
Method: Confocal imaging and FRET measurements Live HeLa cells were examined 16-24 hours after transient transfection (by Fugene 6 (Roche Inc.) according to the manufacturer's recommendations) of ECFP and EYFP fusion constructs. Fluorescent images were acquired using a Zeiss LSM 510 Meta laser scanning microscope equipped with a Plan-Apochromat 63×/1.4 oil immersion objective. Enhanced cyan fluorescent protein (ECFP) was excited at λ=458 nm and detected at λ=470-500 nm and enhanced yellow fluorescent protein (EYFP) was excited at λ=514 nm and detected at λ=530-600 nm, using consecutive scans. The thickness of the slice was 1 μm.
PCNA tagged with cyan fluorescent protein (ECFP) was co-expressed with various hABH2 deletion constructs fused with yellow fluorescent protein (EYFP). […] (FIG. 1).

PCNA [5] = target: T1, PCNA; assay: FRET measurement with ECFP-PCNA; assay type: cell-based; conditions: positive FRET: distance between tags less than 100 Å
From the text: Fluorescent resonance energy transfer (FRET) occurs if the tags (EYFP and ECFP) are less than 100 Å (10 nm) apart. We detected FRET using the sensitised emission method, measuring acceptor (EYFP) emission upon donor (ECFP) excitation. We had FRET when the intensity of emitted light from EYFP after excitation of the ECFP fluorochrome was stronger than the light emitted by ECFP or EYFP-tagged proteins alone, after excitation with the EYFP and ECFP lasers respectively (bleed through), given by the equation: FRET=I2−I1 (ID2/ID1)−I3 (IA2/IA3) is >0. FRET was normalised for expression levels using the equation: NFRET=FRET/(I1×I3)^1/2. NFRET was calculated from mean intensities (I) within a region of interest (ROI) containing more than 25 pixels where all pixels had intensities below 250 and the average intensities were between 100 and 200 for both the donor and the acceptor constructs. Channel 1 (ECFP) and 3 (EYFP) were measured as described above for imaging, and channel 2 (FRET) was excitated with 2=458 nm and detected at λ=530-600 nm. ID1, D2, D3 and IA1, A2, A3 were determined for cells transfected with ECFP and EYFP constructs only, with same settings and same fluorescence intensities as co-transfected cells (I1 and I3). […]
To examine the degree of proximity of hABH2 and PCNA, fluorescence resonance energy transfer (FRET) was measured.

PCNA [6] = target: T1, PCNA; assay: Co-immunoprecipitation and western analysis of endogenous PCNA; assay type: binding; conditions: anti-GFP immunoprecipitation, extracts of stably expressing cells
Method: HeLa (cervical cancer) and HaCaT (spontaneously transformed keratinocyte) cells stably expressing the constructs of interest were prepared by transfection (by Fugene 6) followed by cell sorting or cloning by dilution, and prolonged culturing in selective (using geneticin, G418, 400 μg/ml, Invitrogen) Dulbecco's modified Eagle's Medium high glucose 4.5 g/l (DMEM) (BioWhittaker®) supplemented with 10% Fetal Calf Serum (FCS), Amphotericin B (250 μg/ml, Sigma-Aldrich), gentamycin (100 μg/ml, Gibco) and glutamine (1 mM, BioWhittaker®). The cells were cultured at 37° C. in 5% carbon dioxide, humidified atmosphere. Fractionated cell extracts from HeLa were prepared by resuspending the cell pellets in 1× packed cell volume (PCV) in buffer I (10 mM Tris-HCl, pH 8.0 and 50 mM KCl) and 1×PCV in buffer II (10 mM Tris-HCl, 100 mM KCl, 20% glycerol, 0.5% Nonidet P-40, 10 mM EGTA, 10 mM MgCl2, 1 mM DTT, 1× Complete protease inhibitor (Roche), phosphates inhibitor cocktail (PIC I and PIC II, Sigma). Cells were incubated under constant shaking for 30 min at 4° C. The supernatant (soluble fraction) was harvested. The pellet (containing nuclei) was resuspended in 1×PCV of buffer III (10 mM Tris-HCl, pH 8.0 and 100 mM KCl) and 1×PCV buffer II, and briefly sonicated until all nuclei were disrupted. […]

HeLa cells [7] = assay: Cell survival assay (MTT) of HeLa cells expressing the construct, with alkylating agents; assay type: cell-based
Method: HeLa and HaCaT cells were seeded into 96 well plates (4000 cells/well) and incubated for 4 hours. […] The U2OS cells were exposed to MMS and TMZ only. The cells were exposed continuously until harvest. Cells were harvested every day for 4 days using the MTT assay (Mosmann, 1983). OD was measured at 570 nm, and the average from at least 6 wells was used to calculate cell survival. Data presented is growth from one representative experiment and has been reproduced at least 2 times. […] TZM is reported to be an O^6G methylating agent, while MMC causes interstrand cross links via N-alkylation of guanine in CpG's.

[8] = test system: HaCaT (spontaneously transformed keratinocyte) cells; assay: Cell survival assay of HaCaT cells stably expressing the construct; assay type: cell-based
Method: HeLa and HaCaT cells were seeded into 96 well plates (4000 cells/well) and incubated for 4 hours. […] The U2OS cells were exposed to MMS and TMZ only. The cells were exposed continuously until harvest. Cells were harvested every day for 4 days using the MTT assay (Mosmann, 1983). OD was measured at 570 nm, and the average from at least 6 wells was used to calculate cell survival. Data presented is growth from one representative experiment and has been reproduced at least 2 times.

HeLa cells [9] = assay: MTT assay, peptide with cytostatic drugs (MMS, Cisplatin); assay type: cell-based
Method: The effects of the peptides in sensitising cells to the effects of cytostatic drugs were investigated using an MTT assay and a clonogenic assay (CFU assay) as described below.
HeLa cells were seeded into 96 well plates (6000 cells/well) and incubated for 3 hours. Various doses of MMS and Cisplatin were added to the wells. After 24 hours peptides were added to the cells in serum free media and incubated for 1 h. Fresh media with cytostatic drugs was added and the cells were harvested after additional 24, 48 and 72 hours. MTT was added to the cells (3-(4,5-Dimethylthiazol-2-yl)-2,5-diphenyltetrazolium bromide) and OD was measured at 570 nm [52], and the average from at least 6 wells was used to calculate cell survival. Data is presented as growth from one representative experiment and has been reproduced at least 2 times.

cell membranes = assay type: cell-based
Method: The cells were treated with different concentrations (2, 4 and 8 μM) of peptide for 1 hour. Next, propidium iodide (PI) (50 μg/ml in PBS) was added, this will stain DNA if the cell membranes are permeable. Analysis were done within the next 10 minutes on a FACS Canto flow cytometer (BD-Life Science).

[10] = HeLa cells expressing the construct

Molecule: Cn1nnc2c(C(N)=O)ncn2c1=O [TMZ, 4-methyl-5-oxo-2,3,4,6,8-pentazabicyclo [4.3.0] nona-2,7,9-triene-9-carboxamide]
- cell cycle effect [1]: arrested in G2/M up to day 3
- DNA repair intermediates (abasic sites, SSB, DSB) [2]: highest levels of repair intermediates after 4 hours

Molecule: MDRWLVKRIWKKKRKIIRQIKIWFQNRRMKWKK-Ahx5-FAM)G (not fully specified (residue 33, C-terminus); printed as MDRWLVKRIWKKKRKIIRQIKIWFQNRRMKWKK-Ahx5-FAM)G; also: Ahx5-FAM label and G at C-terminal end, arrangement unclear) [MDR26-8]
- Cytotoxicity (HeLa cells [3]): +

Molecule: COS(C)(=O)=O [MMS, methyl methanesulfonate]
- cell cycle effect [1]: S-phase arrest
- DNA repair intermediates (abasic sites, SSB, DSB) [2]: highest levels of DNA repair intermediates after 4 hours

- co-localisation with PCNA in replication foci (PCNA [4]): sufficient for co-localisation with PCNA
- FRET with ECFP-PCNA (PCNA [5]): positive FRET
- pull-down of endogenous PCNA (PCNA [6]): pulled down
Molecule: hABH21-10-EYFP: the 10 N-terminal amino acids of hABH2 fused to EYFP, expressed in cells (MDRFLVKGAQ; not fully specified (C-terminus); also: fused to EYFP, expressed in cells)
- sensitisation to MMS (HeLa cells [7]; [10]): sensitised HeLa cells to treatment with MMS
- sensitisation to the other cytostatic agents (BCNU, TZM, MMC) (HeLa cells [7]; [10]): sensitised HeLa cells to all of the other cytostatic agents tested
- growth rate of untreated cells (HeLa cells [7]; over-expression, no cytostatic agent): did not interfere with the growth rate of untreated cells
- sensitivity to MMS and TMZ [8]: hypersensitive to MMS and TMZ

Molecule: Ac-MDRWLVKWKKKRKIRRRRRRRRRRR [MDR26-72-0]
- activity in the MTT assay (HeLa cells [9]): good activity

Molecule: O=NN(CCCl)C(=O)NCCCl [BCNU, 1,3-Bis(2-chloroethyl)-1-nitrosourea]
- cell cycle effect [1]: transient G2/M arrest on day 1
- DNA repair intermediates (abasic sites, SSB, DSB) [2]: very low levels of repair intermediates

Molecule: CC[C@H](C)[C@H](NC(=O)[C@H](CCCCN)NC(=O)[C@@H](NC(=O)[C@H](CCC(N)=O)NC(=O)[C@H](CCCNC(=N)N)NC(=O)[C@H](CC(C)C)NC(=O)[C@@H](NC(=O)[C@H](CCCCN)NC(=O)[C@H](CCCNC(=N)N)NC(=O)[C@H](CCCCN)NC(=O)[C@H](CCCCN)NC(=O)[C@H](CCCCN)NC(=O)[C@@H]1CCCN1C(=O)[C@H](CCC(N)=O)NC(=O)[C@H](C)NC(=O)CNC(=O)[C@H](CCCCN)NC(=O)[C@@H](NC(=O)[C@H](CC(C)C)NC(=O)[C@H](Cc1c[nH]c2ccccc12)NC(=O)[C@H](CCCNC(=N)N)NC(=O)[C@H](CC(=O)O)NC(=O)[C@@H](N)CCSC)C(C)C)C(C)C)[C@@H](C)CC)C(=O)N[C@@H](Cc1c[nH]c2ccccc12)C(=O)N[C@@H](Cc1ccccc1)C(=O)N[C@@H](CCC(N)=O)C(=O)N[C@@H](CC(N)=O)C(=O)N[C@@H](CCCNC(=N)N)C(=O)N[C@@H](CCCNC(=N)N)C(=O)N[C@@H](CCSC)C(=O)N[C@@H](CCCCN)C(=O)N[C@@H](Cc1c[nH]c2ccccc12)C(=O)N[C@@H](CCCCN)C(=O)N[C@@H](CCCCNC(=O)CCCCCNC(=O)c1ccc2c(c1)C(=O)OC21c2ccc(O)cc2Oc2cc(O)ccc21)C(=O)NCC(=O)O [MDR2] (H-MDRWLVKGAQPKKKRKVLRQIKIWFQNRRMKWKK([Ahx-5FAM])G-OH)
- membrane toxicity (cell membranes): membrane toxicity is low
